These are literature values, as cited in patent publication US20080241073A1, “Polymeric Micelle Type Mri Imaging Agent” (Kanagawa Academy of Science and Technology, priority 2004, published 2008).

For this data set the following is noted: Corot et al., Non-patent Literature 2.

Structures are written as SMILES.

In the case of `O=C([O-])CN1CCN(CC(=O)[O-])CCN(CC(=O)O)CCN(CC(=O)[O-])CC1.[Gd+3]` [DOTA-Gd], the T1 relaxivity is listed as 3.4.
